Laboratory results published in the NIST ThermoML archive (doi:10.1021/je1005517).
Numbers after ± are expanded uncertainties.

Test: activity coefficient (dimensionless); of the first substance listed, at infinite dilution; xn = mol fraction of the nth substance listed
Conditions: Liquid, GC, x1 = 0

SMILES	activity coefficient (338.15 K, 101 kPa)	activity coefficient (343.15 K, 101 kPa)	activity coefficient (348.15 K, 101 kPa)	activity coefficient (353.15 K, 101 kPa)	activity coefficient (333.15 K, 101 kPa)	activity coefficient (333.15 K, 101.3 kPa)	activity coefficient (338.15 K, 101.3 kPa)	activity coefficient (343.15 K, 101.3 kPa)	activity coefficient (348.15 K, 101.3 kPa)	activity coefficient (353.15 K, 101.3 kPa)
CCCCCl [1-chlorobutane] + CCCCCCCCCCCCCCCCCCCCO	0.0991 ± 0.0059	0.0954 ± 0.0057	0.0919 ± 0.0055	0.0886 ± 0.0053						
CCCCCl [1-chlorobutane] + CCCCCCCCCCCCCCCCCCO	0.036 ± 0.0022	0.0338 ± 0.002	0.0321 ± 0.0019	0.03 ± 0.0018	0.0389 ± 0.0023					
CCCCl [1-chloropropane] + CCCCCCCCCCCCCCCCCCCCO	0.0779 ± 0.0047	0.0778 ± 0.0047	0.0778 ± 0.0047	0.0777 ± 0.0047						
CCCCl [1-chloropropane] + CCCCCCCCCCCCCCCCCCO						0.0331 ± 0.002	0.0294 ± 0.0018	0.0269 ± 0.0016	0.0245 ± 0.0015	0.0225 ± 0.0014
C=CCCCCC [1-heptene] + CCCCCCCCCCCCCCCCCCCCO	0.124 ± 0.0074	0.118 ± 0.0071	0.113 ± 0.0068	0.108 ± 0.0065						
C=CCCCCC [1-heptene] + CCCCCCCCCCCCCCCCCCO						0.0431 ± 0.0026	0.0417 ± 0.0025	0.0407 ± 0.0024	0.0397 ± 0.0024	0.0388 ± 0.0023
C=CCCC [1-pentene] + CCCCCCCCCCCCCCCCCCCCO	0.0813 ± 0.0049	0.0742 ± 0.0045	0.0664 ± 0.004	0.06 ± 0.0036						
C=CCCC [1-pentene] + CCCCCCCCCCCCCCCCCCO						0.0261 ± 0.0016	0.0245 ± 0.0015	0.0234 ± 0.0014	0.0222 ± 0.0013	0.0213 ± 0.0013
CC(C)=O [acetone] + CCCCCCCCCCCCCCCCCCCCO	0.0557 ± 0.0033	0.0572 ± 0.0034	0.0587 ± 0.0035	0.0602 ± 0.0036						
CC(C)=O [acetone] + CCCCCCCCCCCCCCCCCCO	0.0179 ± 0.0011	0.0174 ± 0.001	0.017 ± 0.001	0.0166 ± 0.001	0.0185 ± 0.0011					
CC#N [acetonitrile] + CCCCCCCCCCCCCCCCCCCCO	0.309 ± 0.019	0.265 ± 0.016	0.229 ± 0.014	0.197 ± 0.012						
CC#N [acetonitrile] + CCCCCCCCCCCCCCCCCCO	0.0969 ± 0.0058	0.0901 ± 0.0054	0.0832 ± 0.005	0.0766 ± 0.0046	0.108 ± 0.0065					
CCCCO [butan-1-ol] + CCCCCCCCCCCCCCCCCCCCO	0.431 ± 0.026	0.387 ± 0.023	0.352 ± 0.021	0.316 ± 0.019						
CCCCO [butan-1-ol] + CCCCCCCCCCCCCCCCCCO						0.154 ± 0.0092	0.136 ± 0.008	0.121 ± 0.0073	0.11 ± 0.0066	0.0992 ± 0.006
CCCCOC(C)=O [butyl ethanoate] + CCCCCCCCCCCCCCCCCCCCO	0.14 ± 0.0084	0.131 ± 0.0079	0.123 ± 0.0074	0.115 ± 0.0069						
CCCCOC(C)=O [butyl ethanoate] + CCCCCCCCCCCCCCCCCCO						0.0526 ± 0.0032	0.0468 ± 0.0028	0.0428 ± 0.0026	0.0391 ± 0.0023	0.0358 ± 0.0021
C1CCCCC1 [cyclohexane] + CCCCCCCCCCCCCCCCCCCCO	0.108 ± 0.0065	0.102 ± 0.0061	0.0969 ± 0.0058	0.0918 ± 0.0055						
C1CCCCC1 [cyclohexane] + CCCCCCCCCCCCCCCCCCO	0.0337 ± 0.002	0.0315 ± 0.0019	0.0294 ± 0.0018	0.0274 ± 0.0016	0.0365 ± 0.0022					
ClCCl [dichloromethane] + CCCCCCCCCCCCCCCCCCCCO	0.079 ± 0.0047	0.0642 ± 0.0039	0.0532 ± 0.0032	0.0435 ± 0.0026						
ClCCl [dichloromethane] + CCCCCCCCCCCCCCCCCCO						0.0262 ± 0.0016	0.0233 ± 0.0014	0.0212 ± 0.0013	0.0194 ± 0.0012	0.0178 ± 0.0011
CCOCC [diethyl ether] + CCCCCCCCCCCCCCCCCCCCO	0.0652 ± 0.0039	0.0624 ± 0.0037	0.0598 ± 0.0036	0.0572 ± 0.0034						
CCOCC [diethyl ether] + CCCCCCCCCCCCCCCCCCO	0.0235 ± 0.0014	0.0219 ± 0.0013	0.0204 ± 0.0012	0.019 ± 0.001	0.0257 ± 0.0015					

SMILES	activity coefficient (338.15 K, 101 kPa)	activity coefficient (343.15 K, 101 kPa)	activity coefficient (348.15 K, 101 kPa)	activity coefficient (353.15 K, 101 kPa)	activity coefficient (333.15 K, 101 kPa)	activity coefficient (333.15 K, 101.3 kPa)	activity coefficient (338.15 K, 101.3 kPa)	activity coefficient (343.15 K, 101.3 kPa)	activity coefficient (348.15 K, 101.3 kPa)	activity coefficient (353.15 K, 101.3 kPa)
CCO [ethanol] + CCCCCCCCCCCCCCCCCCCCO	0.124 ± 0.0075	0.117 ± 0.007	0.106 ± 0.0063	0.095 ± 0.0057						
CCO [ethanol] + CCCCCCCCCCCCCCCCCCO						0.0433 ± 0.0026	0.0396 ± 0.0024	0.0369 ± 0.0022	0.0343 ± 0.0021	0.032 ± 0.002
CCOC(C)=O [ethyl acetate] + CCCCCCCCCCCCCCCCCCCCO	0.123 ± 0.0074	0.11 ± 0.0066	0.099 ± 0.0059	0.0888 ± 0.0053						
CCOC(C)=O [ethyl acetate] + CCCCCCCCCCCCCCCCCCO						0.0445 ± 0.0027	0.0408 ± 0.0024	0.0384 ± 0.0023	0.036 ± 0.0022	0.0335 ± 0.002
CCCCCC [hexane] + CCCCCCCCCCCCCCCCCCCCO	0.129 ± 0.0077	0.124 ± 0.0074	0.119 ± 0.0072	0.115 ± 0.0069						
CCCCCC [hexane] + CCCCCCCCCCCCCCCCCCO	0.0468 ± 0.0028	0.0411 ± 0.0025	0.0359 ± 0.0022	0.0315 ± 0.0019	0.0551 ± 0.0033					
CO [methanol] + CCCCCCCCCCCCCCCCCCCCO	0.122 ± 0.0073	0.0967 ± 0.0058	0.0737 ± 0.0044	0.0574 ± 0.0034						
CO [methanol] + CCCCCCCCCCCCCCCCCCO	0.0386 ± 0.0023	0.0357 ± 0.0021	0.033 ± 0.002	0.0306 ± 0.0018	0.0423 ± 0.0025					
CCCCCCCC [octane] + CCCCCCCCCCCCCCCCCCCCO	0.187 ± 0.011	0.161 ± 0.0096	0.138 ± 0.0083	0.12 ± 0.0072						
CCCCCCCC [octane] + CCCCCCCCCCCCCCCCCCO	0.0497 ± 0.003	0.0485 ± 0.0029	0.0473 ± 0.0028	0.0461 ± 0.0028	0.0513 ± 0.0031					
CCCCC [pentane] + CCCCCCCCCCCCCCCCCCCCO	0.0954 ± 0.0057	0.0801 ± 0.0048	0.0668 ± 0.004	0.0564 ± 0.0034						
CCCCC [pentane] + CCCCCCCCCCCCCCCCCCO	0.0272 ± 0.0016	0.0259 ± 0.0016	0.0243 ± 0.0015	0.0231 ± 0.0014	0.0292 ± 0.0018					
CCCO [propan-1-ol] + CCCCCCCCCCCCCCCCCCCCO	0.213 ± 0.013	0.193 ± 0.012	0.175 ± 0.011	0.159 ± 0.0095						
CCCO [propan-1-ol] + CCCCCCCCCCCCCCCCCCO						0.0722 ± 0.0043	0.0625 ± 0.0038	0.0597 ± 0.0036	0.055 ± 0.003	0.051 ± 0.003
ClC(Cl)(Cl)Cl [tetrachloromethane] + CCCCCCCCCCCCCCCCCCCCO	0.0862 ± 0.0052	0.081 ± 0.0049	0.076 ± 0.0046	0.0714 ± 0.0043						
ClC(Cl)(Cl)Cl [tetrachloromethane] + CCCCCCCCCCCCCCCCCCO	0.0285 ± 0.0017	0.0283 ± 0.0017	0.028 ± 0.0017	0.0278 ± 0.0017	0.0288 ± 0.0017					
C1CCOC1 [tetrahydrofuran] + CCCCCCCCCCCCCCCCCCCCO	0.0581 ± 0.0035	0.0543 ± 0.0033	0.0506 ± 0.003	0.0471 ± 0.0028						
C1CCOC1 [tetrahydrofuran] + CCCCCCCCCCCCCCCCCCO	0.0188 ± 0.0011	0.0177 ± 0.0011	0.0166 ± 0.001	0.0156 ± 0.0009	0.0204 ± 0.0012					
Cc1ccccc1 [toluene] + CCCCCCCCCCCCCCCCCCCCO	0.544 ± 0.033	0.479 ± 0.029	0.421 ± 0.025	0.373 ± 0.022						
Cc1ccccc1 [toluene] + CCCCCCCCCCCCCCCCCCO	0.0355 ± 0.0021	0.0343 ± 0.0021	0.0331 ± 0.002	0.0318 ± 0.0019	0.0372 ± 0.0022					
ClC(Cl)Cl [trichloromethane] + CCCCCCCCCCCCCCCCCCCCO	0.0632 ± 0.0038	0.0622 ± 0.0037	0.0612 ± 0.0037	0.0604 ± 0.0036						
ClC(Cl)Cl [trichloromethane] + CCCCCCCCCCCCCCCCCCO	0.022 ± 0.0013	0.0214 ± 0.0013	0.0208 ± 0.0012	0.0202 ± 0.0012	0.0227 ± 0.0014					
